The values that follow come from publication PMC10861299, “A Systematic Survey of Reversibly Covalent Dipeptidyl Inhibitors of the SARS-CoV-2 Main Protease” (Journal of Medicinal Chemistry, 2023).

Read-outs that look alike come from different tables or passages of the source.

Series [1] concerns the target SARS-CoV-2 main protease (M^Pro) (Severe acute respiratory syndrome coronavirus 2, UniProt P0DTD1). Put plainly: In vitro M^Pro enzymatic inhibition with fluorogenic substrate Sub3. The format is biochemical. As to conditions: 20 nM M^Pro, 10 μM Sub3, 30 min preincubation; read-out: Enzymatic IC50.
The target of series [2] is M^Pro-eGFP fusion protein in 293T cells (Severe acute respiratory syndrome coronavirus 2, UniProt P0DTD1). Put plainly: cell-based. Set-up: species or system SARS-CoV-2.
The next series in a line: Cytotoxicity, MTT assay. The format is cell-based. As to conditions: human, HEK293T cells, 293T cells. How it is done: Because of their high antiviral potency, MPI60 and MPI61 were advanced to characterizations of cytotoxicity and in vitro metabolic stability. For the cytotoxicity characterization, we used 293T cells and the MTT assay.[42] […] These CC50 values are similar to that of nirmatrelvir and lead to high calculated selectivity indices (CC50/antiviral EC50) for both compounds. The in vitro metabolic stability analysis for MPI60 and MPI61 was conducted using human liver microsomes.
HEK293T cells were seeded in 96-well plates and incubated at 37 °C and 5% CO2 for 24 h. The cells were then treated with different concentrations (200, 100, 50, 25, 12.5, 6.25, 3.125, 1.5625, 0.78125, and 0 μM) of the tested compound in triplicate for 48 h. Cell viability was assessed by the MTT assay to determine CC50. For the MTT assay, 20 μL MTT (5 mg/mL) was added to each well and incubated with cells for 4 h. After that, the supernatant was removed, and 200 μL DMSO was added per well. The absorbance was recorded at 490 nm. The CC50 value was determined by plotting the normalized cell viability (%) against the compound concentration.
Figure S5. Cytotoxicity curves of MPI60 and MPI61 in 293T cells tested by the MTT assay.
(1 picture or pasted object on this page, not shown here)

Series [3] can be described thus: In vitro metabolic stability in human liver microsomes. As to conditions: pH 7.4. In general terms: Liver microsomes are a subcellular fraction often used to study metabolism.
The next series has as its system COVID-19 patients. Further details: method as in PMID 34914868. As to conditions: patients with mild and moderate COVID-19; cited from earlier work.

With `O=C[C@H](C[C@@H]1CCNC1=O)NC(=O)C1CC2(CCCC2)CN1C(=O)OCc1ccccc1` (stereo partly drawn) [MPI60, Benzyl 3-(((S)-1-Oxo-3-((S)-2-oxopyrrolidin-3-yl)propan-2-yl)carbamoyl)-2-azaspiro[4.4]nonane-2-carboxylate], the IC50 (usually the midpoint of a concentration-inhibition curve) in series [1] worked out at 22 nM. Besides, the EC50 (usually the concentration that produces a half-maximal response) in series [2] (read-out: Cellular EC50) is 88 nM. Moreover, the EC50 in series [2] (read-out: cellular EC50) was less than 100 nM. Further, in “Cytotoxicity, MTT assay”, the CC50 (in general, the concentration at which the toxic effect on the cells reaches its halfway point) at 48 h is 95000 nM. In series [3], the CLint scaled (in general, the capacity of the preparation to metabolise the compound, expressed as a volume cleared per time) at 5 μM stood at 16 mL/min/kg and the half-life (in general, the time in which the quantity being followed falls by half) at 5 μM came to 1.82 h.

With `O=C[C@H](C[C@@H]1CCNC1=O)NC(=O)C1CC2(CCCCC2)CN1C(=O)OCc1ccccc1` (stereo partly drawn) [MPI61, Benzyl 3-(((S)-1-Oxo-3-((S)-2-oxopyrrolidin-3-yl)propan-2-yl)carbamoyl)-2-azaspiro[4.5]decane-2-carboxylate], in series [1], the IC50 is 49 nM. Moreover, the EC50 in series [2] (read-out: Cellular EC50) is 85 nM; in series [2] (read-out: cellular EC50), less than 100 nM. Besides, the midpoint of cytotoxicity in “Cytotoxicity, MTT assay”, the CC50 at 48 h, lay at 230000 nM. Further, the CLint scaled at 5 μM in series [3] amounted to 45 mL/min/kg. In series [3], this molecule came in with a half-life at 5 μM of 0.633 h.

`CC(C)C(=O)OC[C@H]1O[C@@H](n2ccc(NO)nc2=O)[C@H](O)[C@@H]1O` [molnupiravir]: the “reduced the risk of hospitalization and death compared to placebo” value in the series with COVID-19 patients is given as 50%.
